# Measurements reported in patent US5254574A, “New tetrazole derivatives, process for their preparation and their use” (Chemisch Pharmazeutische Forschungsgesellschaft m.b.H., priority 1991, dated 1993).
# “Also recorded” adds a separate entry of the source.
# Legend:
# [1] = test system: angiotensin II induced increases in mean arterial blood pressure; test: Anaesthetized normotensive rat: angiotensin II induced increases in mean arterial blood pressure after intraduodenal administration; conditions: FIG. 3
# Description: b) anaesthetized normotensive rat: Angiotension II (1 /ug/kg i.v.) was given before as well as in 15 minutes intervals after intraduodenal administration of the drugs.
# FIG. 3 The effects of DuP 753 and Subst. 1 on angiotension II induced increases in mean arterial bloodpessure in normotensive anaesthetized rats (n=4)
# [2] = target: T1, Angiotensin II receptor (isolated rat aorta) (Rattus norvegicus, UniProt P25095); test: Isolated rat aorta, contractile force; cumulative angiotensin II dose-response curves with and without antagonist pretreatment; conditions: dose/effect curve of angiotensin II; FIG. 1, FIG. 2
# T1 construct: isolated rat aorta; from tissue; host or cells: isolated rat aorta
# T1 sequence (P25095 1-359): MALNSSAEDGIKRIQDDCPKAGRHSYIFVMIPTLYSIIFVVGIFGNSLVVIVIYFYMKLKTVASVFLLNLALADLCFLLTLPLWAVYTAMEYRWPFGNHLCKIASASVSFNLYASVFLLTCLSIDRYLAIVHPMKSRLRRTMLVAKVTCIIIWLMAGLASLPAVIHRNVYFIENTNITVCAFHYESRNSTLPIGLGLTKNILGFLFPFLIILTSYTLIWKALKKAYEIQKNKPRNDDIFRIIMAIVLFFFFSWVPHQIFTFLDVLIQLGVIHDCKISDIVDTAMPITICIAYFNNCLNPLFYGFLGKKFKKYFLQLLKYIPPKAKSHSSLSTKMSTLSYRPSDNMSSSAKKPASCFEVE
# Description: 1 or DuP 753 (10-8, 10^-7, 10^-6 mol/1, each) and results were expressed as percentage of maximum contraction obtained by addition of 10^-5 mol/1 noradrenaline.
# EP50 -values and pA2 -values were determined arithmetically.
# FIG. 1 Isolated rat aorta contractile force of subst. 1
# FIG. 2 Isolated rat aorta contractile force of DuP 753
# [3] = cited from earlier work
# angiotensin II receptor = conditions: Wong et al., 1990, JPET 255, 211-217; cited from earlier work
Structure (SMILES),duration of action in vivo ([1]; DuP 753 compared with the substances according to the invention),conversion into active non-competitive metabolite in vivo ([1]; concluded from duration of action),mode of antagonism in vitro [2],metabolic conversion in vivo ([3]; literature),mode of angiotensin II receptor antagonism (angiotensin II receptor),"contribution of metabolite to duration of action of DuP 753 ([3]; in vivo, Wong et al., 1990)"
"CCCCc1nc(Cl)c(CO)n1Cc1ccc(-c2ccccc2-c2nn[nH]n2)cc1 [DuP 753, 2-n-butyl-4-chloro-5-hydroxymethyl-1-((2'-(1-H-tetrazol-5-yl)biphenyl-4-yl)methyl)imidazole]",longer duration of action,conversion into an active non-competitive metabolite is detectable,acts competitively in experiments in vitro,"converted into a non-competitive metabolite, EXP 3174",,
"CCCCc1nc(Cl)c(C(=O)O)n1Cc1ccc(-c2ccccc2-c2nnn[nH]2)cc1 [EXP 3174, 2-n-butyl-4-chloro-1-((2'-(1H-tetrazol-5-yl)biphenyl-4-yl)methyl)-imidazole-5-carboxylic acid]",,,,,non-competitive irreversible angiotensin II receptor antagonist,responsible for the long duration of action; also recorded: largely responsible for the duration of action of DuP 753
